Source: US20090233942A1, “Genetic markers associated with response to antidepressants” (priority 2008, published 2009)

Columns and labels:
beagle dogs = test: Pre-clinical study in beagle dogs; assay type: in vivo, dog
patients with MDD = test: Five Phase II studies of vilazodone, eight weeks of treatment; assay type: in vivo, human
Text: As part of the vilazodone development program, five Phase II studies have been conducted, all in patients with MDD. These studies randomized 2,098 patients for eight weeks of treatment, 1196 of whom received vilazodone.

## Cl.N#Cc1ccc2[nH]cc(CCCCN3CCN(c4ccc5oc(C(N)=O)cc5c4)CC3)c2c1 [Vilazodone, 5-{4-[4-(5-Cyano-3-indolyl)-butyl]-1-piperazinyl}-benzofuran-2-carboxamide hydrochloride]
Beagle dogs
  ocular findings: treatment emergent corneal opacities and reduced tear production
Patients with MDD; Phase II studies
  overall safety: generally shown to be safe
Patients with MDD; Phase II, subjects treated with vilazodone
  clinically significant finding from ophthalmologic examinations: increase in the incidence of mild ocular drying
Patients with MDD; each of the Phase II studies
  primary efficacy variable compared to placebo: did not show a statistically significant difference
Patients with MDD; exploratory analyses of Phase II studies
  response stratified by baseline disease severity: a larger treatment effect is observed for more severely depressed patients
Patients with MDD; reported by at least ten percent of vilazodone-treated patients, Phase II, MDD
  most common adverse events: nausea, diarrhea, headache, insomnia, dizziness, dry mouth, somnolence, abnormal dreams, and vomiting
